# Laboratory results from US11224234B2, “Functional chocolate” (IMMD SP. Z.O.O., priority 2016, dated 2022).
# Assay: Pharmacokinetics of trans-Resveratrol in human serum, crossover clinical study
# Format: in vivo
# Conditions: single ingestion
# Method: This was a crossover clinical study on 6 volunteers of 35-65 years old, 3 women and 3 men. It was a multi-arm trial with one-week interval between each arm. Prior to every experiment volunteers were asked not to consume food, which may contain fruit, vegetable or grain polyphenols and tomato-based products. In the morning of the experiment volunteers were asked to abstain from any food and drink only water. The serum of the vein blood was analysed. […] Firstly, a sample was collected before ingesting of a product, then every hour for 4 hours after ingestion. To assess the pharmacokinetics (PK) of t-RSV of our dark and milk chocolate with embedded bilberry and aronia extracts, we undertook a crossover clinical study with the same group of volunteers. On top of these we added into this crossover study a few more groups with Nutella spread where chocolate is only a small ingredient. The design of the study and the sample collection was the same as in the glucose postprandial study described above.
smiles,measurement,value
"Oc1ccc(/C=C/c2cc(O)cc(O)c2)cc1 [t-RSV capsule, trans-Resveratrol]",t-RSV AUC 0-4 hours,105 to 380 ng/mL
same,t-RSV Max,100 to 207 ng/mL
